Measured values published in US20250367166A1, “NEXT GENERATION DIPROVOCIMS THAT ACTIVATE THE INNATE AND ADAPTIVE IMMUNE RESPONSE” (The Scripps Research Institute, priority 2022, published 2025).

Experiments:
TLR1/TLR2 [1] = target: TLR1/TLR2 (Homo sapiens, UniProt O60603+Q15399); experiment: TNF-α release from PMA-differentiated human THP-1 cells (ELISA); settings: for Emax: THP-1, 4 h, read-out: Efficacy (magnitude) of response versus diprovocim-1 (100%), THP-1; for EC50: read-out: EC50 (nM) (THP-1): EC50 TNF-α release from human THP-1 cells, Table 5;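 as to all read-outs here: cells exposed to graded compound concentrations for 4 h, TNF-α quantified in supernatant, LPS as positive and DMSO as negative control, values are duplicate means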
TLR1/TLR2 [2] = target: TLR1/TLR2 (Mus musculus, UniProt Q9EPQ1+Q9QUN7); experiment: TNF-α release from thioglycolate-elicited mouse peritoneal macrophages (ELISA); settings: for Emax: 4 h, read-out: Efficacy (magnitude) of response versus diprovocim-1 (100%), mouse macrophages; for EC50: read-out: EC50 (nM) (mouse): EC50 TNF-α release from mouse macrophages, Table 5
TLR1/TLR2 (Mus musculus, UniProt Q9EPQ1+Q9QUN7), sequence (Q9EPQ1 26-795): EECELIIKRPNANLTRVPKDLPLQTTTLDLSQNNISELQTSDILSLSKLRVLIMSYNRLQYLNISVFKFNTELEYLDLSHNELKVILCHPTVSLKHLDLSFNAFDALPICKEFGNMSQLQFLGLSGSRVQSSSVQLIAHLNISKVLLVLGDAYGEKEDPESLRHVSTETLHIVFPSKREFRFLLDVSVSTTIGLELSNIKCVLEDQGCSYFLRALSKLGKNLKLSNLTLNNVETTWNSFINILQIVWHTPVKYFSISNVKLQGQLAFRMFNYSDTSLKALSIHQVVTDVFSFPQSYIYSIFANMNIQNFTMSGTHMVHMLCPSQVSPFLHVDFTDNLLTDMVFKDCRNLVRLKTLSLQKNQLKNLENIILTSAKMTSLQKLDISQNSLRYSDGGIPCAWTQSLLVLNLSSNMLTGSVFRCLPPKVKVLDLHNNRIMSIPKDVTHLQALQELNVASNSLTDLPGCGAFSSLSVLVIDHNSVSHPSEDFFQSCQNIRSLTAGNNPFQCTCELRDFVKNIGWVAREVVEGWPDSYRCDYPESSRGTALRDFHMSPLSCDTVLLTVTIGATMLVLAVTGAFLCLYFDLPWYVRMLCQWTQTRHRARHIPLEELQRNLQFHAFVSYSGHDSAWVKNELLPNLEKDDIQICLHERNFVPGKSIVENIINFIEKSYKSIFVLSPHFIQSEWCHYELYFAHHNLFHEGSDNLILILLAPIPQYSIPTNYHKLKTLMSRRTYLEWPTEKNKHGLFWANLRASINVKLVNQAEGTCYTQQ
TLR1/TLR2 (Mus musculus, UniProt Q9EPQ1+Q9QUN7), sequence (Q9QUN7 25-784): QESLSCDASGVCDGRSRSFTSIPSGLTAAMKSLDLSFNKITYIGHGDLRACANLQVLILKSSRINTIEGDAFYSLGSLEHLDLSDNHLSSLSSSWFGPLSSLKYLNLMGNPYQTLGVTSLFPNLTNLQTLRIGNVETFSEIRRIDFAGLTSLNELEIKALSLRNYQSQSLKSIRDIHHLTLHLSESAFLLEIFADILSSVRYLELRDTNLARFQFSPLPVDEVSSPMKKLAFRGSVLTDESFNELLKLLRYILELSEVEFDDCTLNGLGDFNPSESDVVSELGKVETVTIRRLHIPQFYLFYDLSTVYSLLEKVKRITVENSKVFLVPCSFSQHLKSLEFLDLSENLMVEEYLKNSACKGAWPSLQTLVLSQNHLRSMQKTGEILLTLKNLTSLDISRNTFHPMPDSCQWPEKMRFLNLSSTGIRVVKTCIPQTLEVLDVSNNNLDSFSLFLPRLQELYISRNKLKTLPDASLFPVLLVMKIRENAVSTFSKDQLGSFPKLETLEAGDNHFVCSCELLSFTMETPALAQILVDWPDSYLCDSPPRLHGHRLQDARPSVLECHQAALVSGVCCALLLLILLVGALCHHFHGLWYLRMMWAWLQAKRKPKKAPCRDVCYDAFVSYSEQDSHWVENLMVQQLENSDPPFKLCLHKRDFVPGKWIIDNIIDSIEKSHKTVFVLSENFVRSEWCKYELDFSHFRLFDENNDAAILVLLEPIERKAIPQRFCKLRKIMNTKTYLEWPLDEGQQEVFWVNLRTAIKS
Protocol: Thioglycolate-elicited macrophages were recovered 4 days after i.p. injection of 2 mL BBL thioglycolate medium, brewer modified (4%; BD Biosciences) by peritoneal lavage with 5 mL phosphate buffered saline (PBS). […] Cells were seeded onto 96-well plates at 1×10^3 cells per well and treated with systematically varied concentrations of the candidate compounds (dissolved in DMSO, and final assay DMSO concentrations (0.5%) were kept constant in all experiments) for 4 h. Ultra-pure LPS (dissolved in H2O, Enzo Life Sciences) was assessed alongside the compounds as a positive control and DMSO treated controls. […] Mouse TNF-α in the supernatants was measured by ELISA kits according to the manufacturer's instructions (eBioscience). EC50's were calculated by Graphpad Prism. All data is mean of duplicates and SD is within ±10% of mean. Mouse cells were from wild type C57BL/6J mice.

TLR1/TLR2 (Homo sapiens, UniProt O60603+Q15399), sequence (Q15399 25-786): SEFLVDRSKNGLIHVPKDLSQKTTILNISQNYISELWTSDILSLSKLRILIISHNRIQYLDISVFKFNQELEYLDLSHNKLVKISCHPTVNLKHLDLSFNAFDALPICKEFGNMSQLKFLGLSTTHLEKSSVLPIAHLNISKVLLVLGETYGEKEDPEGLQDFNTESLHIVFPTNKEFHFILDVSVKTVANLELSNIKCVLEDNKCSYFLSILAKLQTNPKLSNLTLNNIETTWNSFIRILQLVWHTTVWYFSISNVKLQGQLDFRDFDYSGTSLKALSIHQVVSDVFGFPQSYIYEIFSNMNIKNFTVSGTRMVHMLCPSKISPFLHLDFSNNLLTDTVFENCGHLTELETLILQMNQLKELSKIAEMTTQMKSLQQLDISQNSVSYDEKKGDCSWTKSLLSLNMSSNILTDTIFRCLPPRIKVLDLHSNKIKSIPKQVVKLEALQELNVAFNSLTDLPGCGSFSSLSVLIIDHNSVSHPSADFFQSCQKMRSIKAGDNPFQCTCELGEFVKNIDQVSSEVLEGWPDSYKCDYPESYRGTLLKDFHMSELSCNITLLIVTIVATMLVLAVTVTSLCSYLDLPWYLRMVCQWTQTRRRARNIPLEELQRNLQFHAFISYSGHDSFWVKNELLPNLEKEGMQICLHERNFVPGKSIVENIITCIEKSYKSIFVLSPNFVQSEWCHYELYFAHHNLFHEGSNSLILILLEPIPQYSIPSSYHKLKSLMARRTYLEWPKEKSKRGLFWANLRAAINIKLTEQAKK
TLR1/TLR2 (Homo sapiens, UniProt O60603+Q15399), sequence (O60603 21-784): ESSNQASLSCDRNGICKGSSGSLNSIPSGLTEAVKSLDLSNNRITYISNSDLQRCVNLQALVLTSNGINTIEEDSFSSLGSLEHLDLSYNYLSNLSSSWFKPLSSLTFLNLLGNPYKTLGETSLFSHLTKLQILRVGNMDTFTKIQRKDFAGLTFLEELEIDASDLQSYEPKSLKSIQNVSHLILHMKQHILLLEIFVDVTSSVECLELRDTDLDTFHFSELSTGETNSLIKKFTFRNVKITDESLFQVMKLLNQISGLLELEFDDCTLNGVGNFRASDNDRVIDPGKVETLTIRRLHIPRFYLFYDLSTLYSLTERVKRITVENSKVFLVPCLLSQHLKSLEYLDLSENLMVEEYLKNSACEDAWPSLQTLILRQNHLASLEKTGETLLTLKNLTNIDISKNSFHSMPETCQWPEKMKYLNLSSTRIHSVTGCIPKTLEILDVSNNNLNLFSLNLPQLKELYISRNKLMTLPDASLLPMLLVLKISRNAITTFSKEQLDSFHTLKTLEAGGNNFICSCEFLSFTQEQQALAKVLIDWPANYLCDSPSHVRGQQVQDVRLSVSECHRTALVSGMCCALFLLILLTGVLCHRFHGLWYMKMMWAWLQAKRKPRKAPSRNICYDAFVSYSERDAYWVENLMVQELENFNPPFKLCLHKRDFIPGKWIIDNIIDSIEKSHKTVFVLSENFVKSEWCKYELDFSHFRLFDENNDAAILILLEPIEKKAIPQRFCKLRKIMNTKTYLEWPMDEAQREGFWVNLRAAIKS

Row | SMILES | Emax (TLR1/TLR2 [1]) [%] | EC50 (TLR1/TLR2 [1]) [nM] | Emax (TLR1/TLR2 [2]) [%] | EC50 (TLR1/TLR2 [2]) [nM]
1 | C[C@@H](NC(=O)OC(C)(C)C)C(=O)OCCCCCCCCCCCCNC(=O)[C@@H]1CN(C(=O)c2ccc(C(=O)N3C[C@@H](C(=O)N[C@H]4C[C@@H]4c4ccccc4)[C@H](C(=O)N[C@H]4C[C@@H]4c4ccccc4)C3)cc2)C[C@H]1C(=O)N[C@H]1C[C@@H]1c1ccccc1 [Compound 58, 12-((3S,4S)-1-(4-((3S,4S)-3,4-Bis(((1S,2R)-2-phenyl-cyclopropyl)carbamoyl)pyrrolidine-1-carbonyl)-benzoyl)-4-(((1S,2R)-2-phenylcyclopropyl)carbamoyl)-pyrrolidine-3-carboxamido)-dodecyl (tert-butoxycarbonyl)-D-alaninate] | 110 | 1.7 | 200 | 5
2 | CC(C)[C@H](NC(=O)OC(C)(C)C)C(=O)OCCCCCCCCCCCCNC(=O)[C@@H]1CN(C(=O)c2ccc(C(=O)N3C[C@@H](C(=O)N[C@H]4C[C@@H]4c4ccccc4)[C@H](C(=O)N[C@H]4C[C@@H]4c4ccccc4)C3)cc2)C[C@H]1C(=O)N[C@H]1C[C@@H]1c1ccccc1 [Compound 59, (S)-12-((3S,4S)-1-(4-((3S,4S)-3,4-Bis(((1S,2R)-2-phenylcyclopropyl)carbamoyl)pyrrolidine-1-carbonyl)-benzoyl)-4-(((1S,2R)-2-phenylcyclopropyl)carbamoyl)-pyrrolidine-3-carboxamido)-dodecyl 2-((tert-butoxycarbonyl)amino)-3-methylbutanoate] | 100 | 1.8 | 180 | 19
3 | CC(C)(C)OC(=O)N1CCC[C@H]1C(=O)OCCCCCCCCCCCCNC(=O)[C@@H]1CN(C(=O)c2ccc(C(=O)N3C[C@@H](C(=O)N[C@H]4C[C@@H]4c4ccccc4)[C@H](C(=O)N[C@H]4C[C@@H]4c4ccccc4)C3)cc2)C[C@H]1C(=O)N[C@H]1C[C@@H]1c1ccccc1 [Compound 60, (S)-2-(12-((3S,4S)-1-(4-((3S,4S)-3,4-Bis(((1S,2R)-2-phenylcyclopropyl)carbamoyl)pyrrolidine-1-carbonyl)-benzoyl)-4-(((1S,2R)-2-phenylcyclopropyl)carbamoyl)-pyrrolidine-3-carboxamido)-dodecyl) 1-tert-butyl pyrrolidine-1,2-dicarboxylate] | 90 | 0.94 | 100 | 9.2
4 | CC[C@H](C)[C@H](NC(=O)OC(C)(C)C)C(=O)OCCCCCCCCCCCCNC(=O)[C@@H]1CN(C(=O)c2ccc(C(=O)N3C[C@@H](C(=O)N[C@H]4C[C@@H]4c4ccccc4)[C@H](C(=O)N[C@H]4C[C@@H]4c4ccccc4)C3)cc2)C[C@H]1C(=O)N[C@H]1C[C@@H]1c1ccccc1 [Compound 61, (2S,3S)-12-((3S,4S)-1-(4-((3S,4S)-3,4-Bis(((1S,2R)-2-phenylcyclopropyl)carbamoyl)pyrrolidine-1-carbonyl)-benzoyl)-4-(((1S,2R)-2-phenylcyclopropyl)carbamoyl)-pyrrolidine-3-carboxamido)-dodecyl 2-((tert-butoxy-carbonyl)amino)-3-methylpentanoate] | 100 | 9 | 140 | 50
5 | CC(C)(C)OC(=O)NC1(C(=O)OCCCCCCCCCCCCNC(=O)[C@@H]2CN(C(=O)c3ccc(C(=O)N4C[C@@H](C(=O)N[C@H]5C[C@@H]5c5ccccc5)[C@H](C(=O)N[C@H]5C[C@@H]5c5ccccc5)C4)cc3)C[C@H]2C(=O)N[C@H]2C[C@@H]2c2ccccc2)CC1 [Compound 62, 12-((3S,4S)-1-(4-((3S,4S)-3,4-Bis(((1S,2R)-2-phenylcyclopropyl)carbamoyl)pyrrolidine-1-carbonyl)-benzoyl)-4-(((1S,2R)-2-phenylcyclopropyl)carbamoyl)-pyrrolidine-3-carboxamido)-dodecyl 1-((tert-butoxy-carbonyl)amino)cyclopropanecarboxylate] | 100 | 5 | 220 | 10
6 | CC(C)(C)OC(=O)N[C@@H](Cc1ccccc1)C(=O)OCCCCCCCCCCCCNC(=O)[C@@H]1CN(C(=O)c2ccc(C(=O)N3C[C@@H](C(=O)N[C@H]4C[C@@H]4c4ccccc4)[C@H](C(=O)N[C@H]4C[C@@H]4c4ccccc4)C3)cc2)C[C@H]1C(=O)N[C@H]1C[C@@H]1c1ccccc1 [Compound 63, (S)-12-((3S,4S)-1-(4-((3S,4S)-3,4-Bis(((1S,2R)-2-phenylcyclopropyl)carbamoyl)pyrrolidine-1-carbonyl)-benzoyl)-4-(((1S,2R)-2-phenylcyclopropyl)carbamoyl)-pyrrolidine-3-carboxamido)-dodecyl 2-((tert-butoxy-carbonyl)amino)-3-phenylpropanoate] | 100 | 40 | 220 | 40
7 | CC(C)(C)OC(=O)N[C@@H](COCc1ccccc1)C(=O)OCCCCCCCCCCCCNC(=O)[C@@H]1CN(C(=O)c2ccc(C(=O)N3C[C@@H](C(=O)N[C@H]4C[C@@H]4c4ccccc4)[C@H](C(=O)N[C@H]4C[C@@H]4c4ccccc4)C3)cc2)C[C@H]1C(=O)N[C@H]1C[C@@H]1c1ccccc1 [Compound 64, (S)-12-((3S,4S)-1-(4-((3S,4S)-3,4-Bis(((1S,2R)-2-phenylcyclopropyl)carbamoyl)pyrrolidine-1-carbonyl)-benzoyl)-4-(((1S,2R)-2-phenylcyclopropyl)carbamoyl)-pyrrolidine-3-carboxamido)dodecyl 3-(benzyloxy)-2-((tert-butoxycarbonyl)amino)propanoate] | 100 | 0.15 | 370 | 30
8 | CC(C)(C)OC(=O)N[C@@H](CSCc1ccccc1)C(=O)OCCCCCCCCCCCCNC(=O)[C@@H]1CN(C(=O)c2ccc(C(=O)N3C[C@@H](C(=O)N[C@H]4C[C@@H]4c4ccccc4)[C@H](C(=O)N[C@H]4C[C@@H]4c4ccccc4)C3)cc2)C[C@H]1C(=O)N[C@H]1C[C@@H]1c1ccccc1 [Compound 65, (R)-12-((3S,4S)-1-(4-((3S,4S)-3,4-Bis(((1S,2R)-2-phenylcyclopropyl)carbamoyl)pyrrolidine-1-carbonyl)-benzoyl)-4-(((1S,2R)-2-phenylcyclopropyl)carbamoyl)-pyrrolidine-3-carboxamido)dodecyl 3-(benzylthio)-2-((tert-butoxycarbonyl)amino)propanoate] | 100 | 18 | 200 | 360
9 | CC(C)(C)OC(=O)N[C@@H](CCC(=O)OCc1ccccc1)C(=O)OCCCCCCCCCCCCNC(=O)[C@@H]1CN(C(=O)c2ccc(C(=O)N3C[C@@H](C(=O)N[C@H]4C[C@@H]4c4ccccc4)[C@H](C(=O)N[C@H]4C[C@@H]4c4ccccc4)C3)cc2)C[C@H]1C(=O)N[C@H]1C[C@@H]1c1ccccc1 [Compound 66, (S)-5-Benzyl 1-(12-((3S,4S)-1-(4-((3S,4S)-3,4-bis-(((1S,2R)-2-phenylcyclopropyl)carbamoyl)-pyrrolidine-1-carbonyl)-benzoyl)-4-(((1S,2R)-2-phenylcyclopropyl)-carbamoyl)pyrrolidine-3-carboxamido)dodecyl) 2-((tert-butoxycarbonyl)-amino)pentanedioate] | 100 | 39 | 210 | 450
10 | CSCC[C@H](NC(=O)OC(C)(C)C)C(=O)OCCCCCCCCCCCCNC(=O)[C@@H]1CN(C(=O)c2ccc(C(=O)N3C[C@@H](C(=O)N[C@H]4C[C@@H]4c4ccccc4)[C@H](C(=O)N[C@H]4C[C@@H]4c4ccccc4)C3)cc2)C[C@H]1C(=O)N[C@H]1C[C@@H]1c1ccccc1 [Compound 67, (S)-12-((3S,4S)-1-(4-((3S,4S)-3,4-Bis(((1S,2R)-2-phenylcyclopropyl)carbamoyl)pyrrolidine-1-carbonyl)-benzoyl)-4-(((1S,2R)-2-phenylcyclopropyl)carbamoyl)-pyrrolidine-3-carboxamido)-dodecyl 2-((tert-butoxy-carbonyl)amino)-4-(methylthio)butanoate] | 100 | 2.8 | 150 | 44
11 | Cc1ccc(S(=O)(=O)n2cnc(C[C@H](NC(=O)OC(C)(C)C)C(=O)OCCCCCCCCCCCCNC(=O)[C@@H]3CN(C(=O)c4ccc(C(=O)N5C[C@@H](C(=O)N[C@H]6C[C@@H]6c6ccccc6)[C@H](C(=O)N[C@H]6C[C@@H]6c6ccccc6)C5)cc4)C[C@H]3C(=O)N[C@H]3C[C@@H]3c3ccccc3)c2)cc1 [Compound 68, (S)-12-((3S,4S)-1-(4-((3S,4S)-3,4-Bis(((1S,2R)-2-phenylcyclopropyl)carbamoyl)pyrrolidine-1-carbonyl)benzoyl)-4-(((1S,2R)-2-phenylcyclopropyl)carbamoyl)pyrrolidine-3-carboxamido)-dodecyl 2-((tert-butoxy-carbonyl)amino)-3-(1-tosyl-1H-imidazol-4-yl)propanoate] | 90 | 17 | 110 | 35
12 | CC(C)(C)OC(=O)N[C@@H](CCCCNC(=O)OCC1c2ccccc2-c2ccccc21)C(=O)OCCCCCCCCCCCCNC(=O)[C@@H]1CN(C(=O)c2ccc(C(=O)N3C[C@@H](C(=O)N[C@H]4C[C@@H]4c4ccccc4)[C@H](C(=O)N[C@H]4C[C@@H]4c4ccccc4)C3)cc2)C[C@H]1C(=O)N[C@H]1C[C@@H]1c1ccccc1 [Compound 69, (S)-12-((3S,4S)-1-(4-((3S,4S)-3,4-Bis(((1S,2R)-2-phenylcyclopropyl)carbamoyl)pyrrolidine-1-carbonyl)-benzoyl)-4-(((1S,2R)-2-phenylcyclopropyl)carbamoyl)-pyrrolidine-3-carboxamido)-dodecyl 6-((((9H-fluoren-9-yl)methoxy)-carbonyl)amino)-2-((tert-butoxy-carbonyl)amino)-hexanoate] | 100 | 280 | 200 | 1150
